The source of these data is US7589113B2, “Substituted oxadiazole compounds and their use as opioid receptor ligands” (Gruenenthal GmbH, priority 2005, dated 2009).

Test [1] concerns the target T1, human μ opiate receptor (Homo sapiens, UniProt P35372).
T1 construct: purchased PerkinElmer Life Sciences, Zaventem, Belgium RB-HOM; host or cells: CHO-K1 cells (membrane preparation)
The experiment in a line: Affinity for human μ opiate receptor ([3H]-naloxone displacement, SPA). It is filed as binding. Conditions: for inhibition at 1 µM / μ opioid receptor, % inhibition [1 μM]: 1 μM test substance, inhibition of specific [3H]-naloxone binding; for inhibition at 1 µM: read-out: μ opioid receptor, % inhibition [1 μM]; for Ki: Cheng-Prusoff conversion from IC50, read-out: μ opioid receptor, Ki. On the procedure: Method for Determining Affinity for Human μ Opiate Receptor
Receptor affinity for the human μ opiate receptor is determined in a homogeneous batch in microtitre plates. To this end, dilution series of the substances to be tested are incubated in a total volume of 250 μl for 90 minutes at room temperature with a receptor membrane preparation (15-40 μg protein/250 μl incubation batch) of CHO-K1 cells which express the human μ-opiate receptor (RB-HOM receptor membrane preparation from PerkinElmer Life Sciences, Zaventem, Belgium) in the presence of 1 nmol/l of the radioactive ligand [^3H]-naloxone (NET719, from PerkinElmer Life Sciences, Zaventem, Belgium) and 1 mg of WGA-SPA beads (wheat germ agglutinin SPA beads from Amersham/Pharmacia, Freiburg, Germany). 50 mmol/l of tris HCl supplemented with 0.06% bovine serum albumin is used as the incubation buffer. Nonspecific binding is determined by additionally adding 100 μmol/l of naloxone. Once the ninety minute incubation time has elapsed, the microtitre plates are centrifuged off for 20 minutes at 1000 g and the radioactivity measured in a β counter (Microbeta-Trilux, from PerkinElmer Wallac, Freiburg, Germany). The percentage displacement of the radioactive ligand from its binding to the human μ opiate receptor is determined at a concentration of the test substances of 1 μmol/l and stated as percentage inhibition of specific binding. On the basis of the percentage displacement brought about by different concentrations of the test substances, IC50 inhibition concentrations which result in a 50% displacement of the radioactive ligand are calculated. Ki values for the test substances are obtained by conversion using the Cheng-Prusoff equation.

In test [2] the target is T2, Noradrenalin reuptake (Rattus norvegicus, UniProt Q63380).
T2 construct: these vesicular particles are isolated from the hypothalamus of male rat brains; from tissue; host or cells: hypothalamus of male rat brains, synaptosomes (P2 fraction)
In words: Noradrenalin (NA) reuptake inhibition in rat hypothalamus synaptosomes. It is filed as biochemical. Here is the method: (§1) Noradrenalin (NA) and Serotonin (5HT) Reuptake Inhibition
(§2) In order to be able to carry out these in vitro studies, synaptosomes are freshly isolated from rat brain regions. A “P2” fraction is used, which is prepared according to the instructions given by Gray and Whittaker (E. G. Gray and V. P. Whittaker (1962) J. Anat. 76, 79-88). For NA uptake, these vesicular particles are isolated from the hypothalamus of male rat brains.
(§3) A detailed description of the method may be found in the literature (M. Ch. Frink, H.-H. Hennies, W. Engiberger, M. Haurand and B. Wilffert (1996) Arzneim.-Forsch./Drug Res. 46 (III), 11, 1029-1036).

The target in test [3] is T3, Serotonin reuptake (Rattus norvegicus, UniProt P31652).
T3 construct: synaptosomes are freshly isolated from rat brain regions; from tissue; host or cells: rat brain synaptosomes (P2 fraction)
The experiment in a line: Serotonin (5HT) reuptake inhibition in rat brain synaptosomes. It is filed as biochemical. Here is the method: as §1, §2, §3

Molecules are shown by their SMILES.

T1 sequence (P35372 whole entry): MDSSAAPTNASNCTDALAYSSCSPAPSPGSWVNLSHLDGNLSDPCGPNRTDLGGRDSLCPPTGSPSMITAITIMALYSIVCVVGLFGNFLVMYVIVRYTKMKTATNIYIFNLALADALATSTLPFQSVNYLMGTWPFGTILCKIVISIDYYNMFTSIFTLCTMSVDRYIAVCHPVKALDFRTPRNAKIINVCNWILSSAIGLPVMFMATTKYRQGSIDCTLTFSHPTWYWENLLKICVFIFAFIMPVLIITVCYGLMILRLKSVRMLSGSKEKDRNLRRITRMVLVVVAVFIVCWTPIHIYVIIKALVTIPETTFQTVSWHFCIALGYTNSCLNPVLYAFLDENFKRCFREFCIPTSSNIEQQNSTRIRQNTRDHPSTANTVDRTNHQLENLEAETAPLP
T3 sequence (P31652 whole entry): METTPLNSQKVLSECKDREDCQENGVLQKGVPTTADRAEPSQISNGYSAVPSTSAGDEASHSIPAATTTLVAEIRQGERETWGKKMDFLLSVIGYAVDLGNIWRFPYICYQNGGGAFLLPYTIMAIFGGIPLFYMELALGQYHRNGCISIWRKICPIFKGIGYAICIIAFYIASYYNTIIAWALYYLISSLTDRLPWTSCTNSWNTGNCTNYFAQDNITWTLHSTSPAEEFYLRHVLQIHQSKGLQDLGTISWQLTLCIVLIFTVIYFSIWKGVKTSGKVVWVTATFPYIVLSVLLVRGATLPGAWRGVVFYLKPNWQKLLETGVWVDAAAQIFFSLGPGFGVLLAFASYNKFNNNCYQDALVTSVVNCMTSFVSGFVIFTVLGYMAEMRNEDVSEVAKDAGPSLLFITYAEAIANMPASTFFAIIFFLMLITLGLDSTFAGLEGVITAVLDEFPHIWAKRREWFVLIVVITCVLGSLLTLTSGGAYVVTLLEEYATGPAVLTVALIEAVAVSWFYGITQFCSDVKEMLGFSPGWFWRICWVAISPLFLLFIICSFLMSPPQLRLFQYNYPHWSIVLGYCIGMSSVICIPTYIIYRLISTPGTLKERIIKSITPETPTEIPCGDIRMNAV
T2 sequence (Q63380 1-617): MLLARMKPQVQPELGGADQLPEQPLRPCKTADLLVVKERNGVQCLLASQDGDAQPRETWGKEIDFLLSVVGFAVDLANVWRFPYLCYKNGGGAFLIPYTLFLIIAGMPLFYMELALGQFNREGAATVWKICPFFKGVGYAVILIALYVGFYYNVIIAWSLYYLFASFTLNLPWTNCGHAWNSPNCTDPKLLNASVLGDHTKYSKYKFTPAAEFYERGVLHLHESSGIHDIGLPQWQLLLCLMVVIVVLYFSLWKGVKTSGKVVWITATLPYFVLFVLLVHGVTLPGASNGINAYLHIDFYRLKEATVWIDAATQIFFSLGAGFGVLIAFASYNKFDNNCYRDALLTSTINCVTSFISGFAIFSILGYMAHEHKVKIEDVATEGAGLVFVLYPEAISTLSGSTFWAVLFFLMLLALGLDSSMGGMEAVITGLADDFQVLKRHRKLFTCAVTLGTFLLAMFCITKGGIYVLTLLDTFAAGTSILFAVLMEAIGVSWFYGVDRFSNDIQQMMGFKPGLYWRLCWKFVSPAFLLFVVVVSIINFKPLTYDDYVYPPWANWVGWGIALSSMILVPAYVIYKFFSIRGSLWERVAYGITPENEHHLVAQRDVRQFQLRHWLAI

The inhibition is the change of the read-out against control, counted positive when it falls. For `CN(C)C(c1ccccc1)C1CCC(CCc2nc(-c3cccc(Cl)c3Cl)no2)CC1` (stereo not drawn) [Example 304, [(4-{2-[3-(2,3-dichlorophenyl)-[1,2,4]oxadiazol-5-yl]-ethyl}-cyclohexyl)-phenylmethyl]-dimethylamine], the inhibition at 1 µM in test [1] was 51%.

In the case of `CN(C)C(c1ccc(F)cc1)C1CCC(=Cc2nc(-c3cccc(Cl)c3Cl)no2)CC1` (stereo not drawn) [Example 55, [{4-[3-(2,3-dichlorophenyl)-[1,2,4]oxadiazol-5-ylmethylene]-cyclohexyl}-(4-fluorophenyl)-methyl]-dimethylamine], the inhibition at 1 µM in test [1] amounted to 53%.

Turning to `Cc1ccc(-c2noc(C=CC3CCC(C(c4cccs4)N(C)C)CC3)n2)n1C` (stereo not drawn) [Example 224, [(4-{2-[3-(1,5-dimethyl-1H-pyrrol-2-yl)-[1,2,4]oxadiazol-5-yl]-vinyl}-cyclohexyl)-thiophen-2-yl-methyl]-dimethylamine], in test [1], the inhibition at 1 µM is 54%.

Turning to `CN(C)C(c1ccccc1)C1CCC(=Cc2nc(-c3ccccc3)no2)CC1` (stereo not drawn) [Example 69, dimethyl-{phenyl-[4-(3-phenyl-[1,2,4]oxadiazol-5-ylmethylene)-cyclohexyl]-methyl}-amine], the inhibition at 1 µM in test [1] worked out at 40%.

Take `COc1ccc(Cc2noc(C=C3CCC(C(c4ccccc4)N(C)C)CC3)n2)cc1` (stereo not drawn) [Example 79, ({4-[3-(4-methoxybenzyl)-[1,2,4]oxadiazol-5-ylmethylene]-cyclohexyl}-phenylmethyl)-dimethylamine]: the inhibition at 1 µM in test [1] was 43%.

What is called Ki is the equilibrium dissociation constant of an inhibitor or competing ligand from its target. On to `CN(C)C(c1ccccc1)C1CCC(Cc2nc(-c3cccc(Cl)c3)no2)CC1` (stereo not drawn) [Example 243, ({4-[3-(3-chlorophenyl)-[1,2,4]oxadiazol-5-ylmethyl]-cyclohexyl}-phenylmethyl)-dimethylamine], for which, in test [1], the inhibition at 1 µM was 55% and the inhibitory constant (Ki) was 320 nM.

On to `CN(C)C(c1ccccc1)C1CCC(Cc2nc(-c3cccc(Cl)c3Cl)no2)CC1` (stereo not drawn) [Example 246, ({4-[3-(2,3-dichlorophenyl)-[1,2,4]oxadiazol-5-ylmethyl]-cyclohexyl}-phenylmethyl)-dimethylamine], for which, in test [1], the inhibition at 1 µM worked out at 56%.

Consider `Cc1cccc(-c2noc(C=CC3CCC(C(c4ccccc4)N(C)C)CC3)n2)c1` (stereo not drawn) [Example 183, dimethyl-(phenyl-{4-[2-(3-m-tolyl-[1,2,4]oxadiazol-5-yl)-vinyl]-cyclohexyl}-methyl)-amine], for which the inhibition at 1 µM in test [1] came out at 40%.

As for `COc1ccc(Cc2noc(CC3CCC(C(c4ccccc4)N(C)C)CC3)n2)cc1` (stereo not drawn) [Example 44, (4-((3-(4-methoxybenzyl)-1,2,4-oxadiazol-5-yl)methyl)cyclohexyl)-N,N-dimethyl(phenyl)methanamine], the figures for the inhibition at 10 µM in test [2] and in test [3] were 100% and 99%, respectively. Moreover, the “μ opioid receptor, % inhibition [1 μM]” value in test [1] is recorded as 75%. Also, the Ki in test [1] stood at 72 nM.

With `COc1ccc(Cc2noc(CC3CCC(C(c4ccccc4)N(C)C)CC3)n2)cc1` (stereo not drawn) [Example 239, ({4-[3-(4-methoxybenzyl)-[1,2,4]oxadiazol-5-ylmethyl]-cyclohexyl}-phenylmethyl)-dimethylamine], the inhibition at 1 µM in test [1] stood at 66%.

In the case of `Cc1cccc(-c2noc(C=CC3CCC(C(c4cccs4)N(C)C)CC3)n2)c1` (stereo not drawn) [Example 195, dimethyl-(thiophen-2-yl-{4-[2-(3-m-tolyl-[1,2,4]oxadiazol-5-yl)-vinyl]-cyclohexyl}-methyl)-amine], the inhibition at 1 µM in test [1] turned out to be 48%.

Regarding `COc1ccc(Cc2noc(CCC3CCC(C(c4ccccc4)N(C)C)CC3)n2)cc1` (stereo not drawn) [Example 269, [(4-{2-[3-(4-methoxybenzyl)-[1,2,4]oxadiazol-5-yl]-ethyl}-cyclohexyl)-phenylmethyl]-dimethylamine], the inhibition at 1 µM in test [1] amounted to 43%.

`CN(C)C(c1ccccc1)C1CCC(CCc2nc(Cc3ccc(Cl)cc3)no2)CC1` (stereo not drawn) [Example 273, [(4-{2-[3-(4-chlorobenzyl)-[1,2,4]oxadiazol-5-yl]-ethyl}-cyclohexyl)-phenylmethyl]-dimethylamine]: the inhibition at 1 µM in test [1] stood at 68%.

Regarding `CN(C)C(c1ccccc1)C1CCC(Cc2nc(Cc3ccc(Cl)cc3)no2)CC1` (stereo not drawn) [Example 43, (4-((3-(4-chlorobenzyl)-1,2,4-oxadiazol-5-yl)methyl)cyclohexyl)-N,N-dimethyl(phenyl)methanamine], the inhibition at 10 µM in test [2] and in test [3] was 95% in each case. Besides, the inhibition at 1 µM in test [1] was found to be 83%. The inhibitory constant (Ki) in test [1] is 44 nM.

Turning to `Cc1cccc(-c2noc(C=C3CCC(C(c4ccccc4)N(C)C)CC3)n2)c1` (stereo not drawn) [Example 135, dimethyl-{phenyl-[4-(3-m-tolyl-[1,2,4]oxadiazol-5-ylmethylene)-cyclohexyl]-methyl}-amine], the inhibition at 1 µM in test [1] came to 44%.

With `Cc1cccc(-c2noc(CC3CCC(C(c4ccccc4)N(C)C)CC3)n2)c1` (stereo not drawn) [Example 258, dimethyl-{phenyl-[4-(3-m-tolyl-[1,2,4]oxadiazol-5-ylmethyl)-cyclohexyl]-methyl}-amine], the inhibition at 1 µM in test [1] was 53%.

As for `CN(C)C(c1ccccc1)C1CCC(C=Cc2nc(Cc3ccc(Cl)cc3)no2)CC1` (stereo not drawn) [Example 150, [(4-{2-[3-(4-chlorobenzyl)-[1,2,4]oxadiazol-5-yl]-vinyl}-cyclohexyl)-phenylmethyl]-dimethylamine], the “μ opioid receptor, % inhibition [1 μM]” value in test [1] worked out at 56%.

For the compound `Cc1cccc(-c2noc(CCC3CCC(C(c4ccccc4)N(C)C)CC3)n2)c1` (stereo not drawn) [Example 296, dimethyl-(phenyl-{4-[2-(3-m-tolyl-[1,2,4]oxadiazol-5-yl)-ethyl]-cyclohexyl}-methyl)-amine], the inhibition at 1 µM in test [1] was found to be 45%.

For the compound `CN(C)C(c1cccc(F)c1)C1CCC(Cc2nc(-c3ccccc3)no2)CC1` (stereo not drawn) [Example 232, {(3-fluorophenyl)-[4-(3-phenyl-[1,2,4]oxadiazol-5-ylmethyl)-cyclohexyl]-methyl}-dimethylamine], the inhibition at 1 µM in test [1] is 41%.

As to `CN(C)C(c1ccccc1)C1CCC(CCc2nc(-c3ccc(F)cc3F)no2)CC1` (stereo not drawn) [Example 281, [(4-{2-[3-(2,4-difluorophenyl)-[1,2,4]oxadiazol-5-yl]-ethyl}-cyclohexyl)-phenylmethyl]-dimethylamine], in test [1], the inhibition at 1 µM amounted to 69%.

For `CN(C)C(c1ccccc1)C1CCC(C=Cc2nc(Cc3ccc(Cl)cc3)no2)CC1` (stereo not drawn) [Example 149, [(4-{2-[3-(4-chlorobenzyl)-[1,2,4]oxadiazol-5-yl]-vinyl}-cyclohexyl)-phenylmethyl]-dimethylamine], the inhibition at 1 µM in test [1] came to 42%.

`CN(C)C(c1ccccc1)C1CCC(Cc2nc(-c3ccccc3)no2)CC1` (stereo not drawn) [Example 234, dimethyl-{phenyl-[4-(3-phenyl-[1,2,4]oxadiazol-5-ylmethyl)-cyclohexyl]-methyl}-amine]: the inhibition at 1 µM in test [1] is 64%.

With `CN(C)C(c1cccs1)C1CCC(C=Cc2nc(Cc3ccc(Cl)cc3)no2)CC1` (stereo not drawn) [Example 155, [(4-{2-[3-(4-chlorobenzyl)-[1,2,4]oxadiazol-5-yl]-vinyl}-cyclohexyl)-thiophen-2-yl-methyl]-dimethylamine], the inhibition at 1 µM in test [1] came to 52%.
